Patent US20260226497A1, “TRANSGENIC MAIZE EVENT MON 87427” (Monsanto Technology LLC, priority 2009, published 2026)

Test system: event MON 87427 hybrids
Format: in vivo, maize
Conditions: two successive sprays at 2.25 lb a.e./acre each
Description: This illustrates that the F1 hybrid plants from event MON 87427 crosses are fully tolerant to glyphosate when used for weed control.

O=C(O)CNCP(=O)(O)O [glyphosate, N-phosphonomethylglycine]
injury or male fertility compared with NK603 hybrid: no difference was observed in injury or male fertility
